Experimental data taken from patent USRE49850E1, “N-(pyridin-2-yl)-4-(thiazol-5-yl)pyrimidin-2-amine derivatives as therapeutic compounds” (AUCENTRA THERAPEUTICS PTY LTD, priority 2015, dated 2024).

Legend:
CDK4D1 = biological target: T1, CDK4D1 (Homo sapiens, UniProt P11802); experiment: Kinase assay CDK4/D1 (radiometric or ADP Glo); type: biochemical; settings: apparent Ki calculated from Km (ATP) and IC50; read-out: CDK inhibition Ki CDK4D1
T1 construct: purchased Eurofins Pharma Discovery or Reaction Biology Corporation (service)
T1 sequence (P11802 whole entry): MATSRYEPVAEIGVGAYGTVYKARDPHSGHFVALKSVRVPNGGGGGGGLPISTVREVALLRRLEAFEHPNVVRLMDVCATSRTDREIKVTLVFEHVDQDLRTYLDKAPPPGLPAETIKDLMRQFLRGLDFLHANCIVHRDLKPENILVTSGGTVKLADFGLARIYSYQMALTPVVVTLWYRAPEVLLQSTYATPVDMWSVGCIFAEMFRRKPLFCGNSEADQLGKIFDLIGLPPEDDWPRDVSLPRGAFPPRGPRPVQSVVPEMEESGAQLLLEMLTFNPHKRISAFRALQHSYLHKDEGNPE
T1 sequence (P24385 whole entry partner): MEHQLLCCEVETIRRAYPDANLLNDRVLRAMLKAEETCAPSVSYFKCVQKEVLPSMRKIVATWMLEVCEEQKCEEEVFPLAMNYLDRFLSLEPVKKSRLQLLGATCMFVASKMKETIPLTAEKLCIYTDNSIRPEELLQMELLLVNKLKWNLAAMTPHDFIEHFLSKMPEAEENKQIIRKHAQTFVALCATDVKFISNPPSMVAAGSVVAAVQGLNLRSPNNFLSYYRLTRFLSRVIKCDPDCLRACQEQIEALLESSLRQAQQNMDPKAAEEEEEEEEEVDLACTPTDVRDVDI
How it was run: (§1)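 In-house CDK4/D1 ADP-Glo: RB-CTF substrate, buffer […] pH 7.5/20 mM MgCl2/0.4 mM DTT/0.1 mg/ml BSA, ATP-initiated 40 min reaction at 37 °C, luminescence read-out; compounds tested from 10 μM to 0.5 nM in ten 1:3 steps. CDK7H, CDK2A and CDK1B plus alternative CDK4/D1 values measured radiometrically by external profilers; IC50 by logistic fit, apparent Ki via ATP Km.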

MDA-MB-453 = experiment: Cell viability assay (MTT, solid tumour cell line) MDA-MB-453; type: cell-based, human; settings: Homo sapiens, MDA-MB-453, 72 h; read-out: Anti-proliferative activity GI50 MDA-MB-453
Excerpt: (§2) Compounds from Example 1 were subjected to a standard MTT (3-(4,5-dimethylthiazol-2-yl)-2,5-diphenyltetrazolium bromide) and resazurin assays on solid tumour cell lines and leukemia cell lines, respectively, as previously reported (Wang S et al., J Med Chem 47:1662-1675, 2004 and Diab S. et al. CheMedChem 9:962-972, 2014).

MV4-11 = experiment: Cell viability assay (resazurin, leukemia cell line) MV4-11; type: cell-based, human; settings: Homo sapiens, MV4-11, 72 h; read-out: Anti-proliferative activity GI50 MV4-11
Excerpt: as §2

CDK9T1 = biological target: T2, CDK9T1 (Homo sapiens, UniProt P50750); experiment: Kinase assay CDK9/T1 (radiometric or ADP Glo); type: biochemical; settings: for Ki: apparent Ki calculated from Km (ATP) and IC50, read-out: CDK inhibition Ki CDK9T1
T2 construct: purchased Eurofins Pharma Discovery or Reaction Biology Corporation (service)
T2 sequence (P50750 whole entry): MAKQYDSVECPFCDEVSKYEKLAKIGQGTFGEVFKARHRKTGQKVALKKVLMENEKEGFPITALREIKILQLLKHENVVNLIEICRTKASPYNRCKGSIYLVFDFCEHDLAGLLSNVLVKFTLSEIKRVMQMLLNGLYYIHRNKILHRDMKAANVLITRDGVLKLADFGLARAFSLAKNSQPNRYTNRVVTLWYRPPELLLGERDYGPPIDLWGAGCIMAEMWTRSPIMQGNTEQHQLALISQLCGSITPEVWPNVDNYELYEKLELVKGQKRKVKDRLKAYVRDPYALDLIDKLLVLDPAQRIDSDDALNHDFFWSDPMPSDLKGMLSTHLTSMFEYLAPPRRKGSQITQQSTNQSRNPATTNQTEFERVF
T2 sequence (O60563 whole entry partner): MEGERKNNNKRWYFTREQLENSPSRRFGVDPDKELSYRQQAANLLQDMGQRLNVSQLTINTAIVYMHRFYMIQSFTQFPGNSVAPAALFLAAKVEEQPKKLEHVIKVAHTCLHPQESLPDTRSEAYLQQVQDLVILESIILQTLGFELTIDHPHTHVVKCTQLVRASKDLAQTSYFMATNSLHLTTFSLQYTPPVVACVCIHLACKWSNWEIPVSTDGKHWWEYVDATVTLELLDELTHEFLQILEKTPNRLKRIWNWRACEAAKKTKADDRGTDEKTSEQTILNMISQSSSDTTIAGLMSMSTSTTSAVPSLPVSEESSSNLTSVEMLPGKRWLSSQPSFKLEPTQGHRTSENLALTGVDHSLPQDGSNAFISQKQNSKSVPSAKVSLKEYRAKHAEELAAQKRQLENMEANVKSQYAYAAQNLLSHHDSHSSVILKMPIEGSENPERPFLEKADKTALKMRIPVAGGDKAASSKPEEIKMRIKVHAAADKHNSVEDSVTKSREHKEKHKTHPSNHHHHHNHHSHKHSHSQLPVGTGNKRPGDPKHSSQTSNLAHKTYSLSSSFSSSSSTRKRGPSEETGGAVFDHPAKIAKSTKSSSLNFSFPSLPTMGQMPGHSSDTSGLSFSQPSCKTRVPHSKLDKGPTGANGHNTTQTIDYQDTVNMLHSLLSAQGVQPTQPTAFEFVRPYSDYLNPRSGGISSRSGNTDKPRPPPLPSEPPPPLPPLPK
How it was run: (§3)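 Radiometric inhibition data for CDKs came from Eurofins or Reaction Biology profiling services; CDK4/D1 was also run in-house by ADP-Glo in […] pH 7.5, 20 mM MgCl2, 0.4 mM DTT, 0.1 mg/ml BSA with RB-CTF substrate, 40 min at 37 °C after ATP start. Ten-point 1:3 dilutions (10 μM–0.5 nM); four-parameter IC50, Ki from IC50 and ATP Km.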

CDK7H = CDK7H (Homo sapiens, UniProt P50613); experiment: Kinase assay CDK7H (radiometric profiling service); type: biochemical; settings: for Ki: apparent Ki calculated from Km (ATP) and IC50, read-out: CDK inhibition Ki CDK7H
CDK7H, sequence (P50613 whole entry): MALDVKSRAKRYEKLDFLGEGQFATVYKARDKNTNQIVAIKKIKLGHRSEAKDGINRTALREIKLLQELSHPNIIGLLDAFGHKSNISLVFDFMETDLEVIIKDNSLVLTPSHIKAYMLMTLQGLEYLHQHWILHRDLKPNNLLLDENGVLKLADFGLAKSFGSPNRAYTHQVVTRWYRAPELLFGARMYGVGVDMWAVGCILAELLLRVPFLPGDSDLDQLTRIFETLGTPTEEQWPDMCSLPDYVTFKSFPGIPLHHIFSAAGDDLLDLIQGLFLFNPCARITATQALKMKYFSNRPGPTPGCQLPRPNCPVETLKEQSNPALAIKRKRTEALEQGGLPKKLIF
CDK7H, sequence (P51946 whole entry partner): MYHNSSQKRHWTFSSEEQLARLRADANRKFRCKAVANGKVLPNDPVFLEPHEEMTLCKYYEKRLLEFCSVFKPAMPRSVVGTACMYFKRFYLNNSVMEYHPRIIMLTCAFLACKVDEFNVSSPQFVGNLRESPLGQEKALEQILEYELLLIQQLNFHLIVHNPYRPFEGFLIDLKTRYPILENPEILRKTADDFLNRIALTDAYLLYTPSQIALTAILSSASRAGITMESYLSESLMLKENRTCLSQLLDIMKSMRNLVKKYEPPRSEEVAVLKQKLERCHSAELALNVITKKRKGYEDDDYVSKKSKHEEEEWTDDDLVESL
CDK7H, sequence (P51948 whole entry partner): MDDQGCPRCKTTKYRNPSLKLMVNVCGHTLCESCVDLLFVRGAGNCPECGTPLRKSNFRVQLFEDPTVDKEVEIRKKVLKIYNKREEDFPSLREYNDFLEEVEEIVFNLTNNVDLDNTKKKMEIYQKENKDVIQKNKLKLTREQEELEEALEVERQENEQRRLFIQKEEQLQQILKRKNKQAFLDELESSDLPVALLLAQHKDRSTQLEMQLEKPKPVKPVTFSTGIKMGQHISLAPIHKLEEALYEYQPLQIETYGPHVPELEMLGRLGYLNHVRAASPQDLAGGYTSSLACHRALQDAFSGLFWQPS
Experimental: Eurofins Pharma Discovery or Reaction Biology Corporation Kinase Profiler services were used to measure inhibition of CDKs and other kinases by radiometric assay. Inhibition of CDK4/D1, CDK6/D3 and CDK9/T1 were also determined in-house using ADP Glo Kinase assays (Promega Corporation, Madison, USA). Briefly, the kinase reaction for CDK4/D1 and CDK6/D3 was performed with kinase reaction buffer ([…] Tris base pH 7.5, 20 mM MgCl2, 0.4 mM DTT), 0.1 mg/ml BSA and RB-CTF substrate (retinoblastoma protein1 C-terminal fraction). For CDK9/CyclinT1, the kinase reaction was performed with standard assay buffer and Kinase Dilution Buffer and RBER-IRStide substrate. Serial dilutions of 1:3 were prepared for test compounds for 10 concentrations (from 10 μM to 0.5 nM). The kinase reactions were started by addition of ATP, incubated for 40 min at 37° C. and then stopped by adding 10 μL of ADP Glo reagent. After incubation at room temperature in the dark for 40 min, 20 μL of kinase detection reagent was added per well and incubated for 40 min. Luminescence was measured using an EnVision Multilabel plate reader (PerkinElmer, Buckinghamshire, UK). Positive and negative controls were perfonned in the presence and absence of CDK kinases, respectively. Half-maximal inhibition (IC50) values were calculated using a 4-parameter logistic non-linear regression model with Graphpad prism (Version 6.0). Apparent inhibition constants (Ki) values were calculated from Km (ATP) and IC50 values for the respective kinases.

CDK6D3 = biological target: T3, CDK6D3 (Homo sapiens, UniProt Q00534); experiment: Kinase assay CDK6/D3 (radiometric or ADP Glo); type: biochemical; settings: apparent Ki calculated from Km (ATP) and IC50; read-out: CDK inhibition Ki CDK6D3
T3 construct: purchased Eurofins Pharma Discovery or Reaction Biology Corporation (service)
T3 sequence (Q00534 whole entry): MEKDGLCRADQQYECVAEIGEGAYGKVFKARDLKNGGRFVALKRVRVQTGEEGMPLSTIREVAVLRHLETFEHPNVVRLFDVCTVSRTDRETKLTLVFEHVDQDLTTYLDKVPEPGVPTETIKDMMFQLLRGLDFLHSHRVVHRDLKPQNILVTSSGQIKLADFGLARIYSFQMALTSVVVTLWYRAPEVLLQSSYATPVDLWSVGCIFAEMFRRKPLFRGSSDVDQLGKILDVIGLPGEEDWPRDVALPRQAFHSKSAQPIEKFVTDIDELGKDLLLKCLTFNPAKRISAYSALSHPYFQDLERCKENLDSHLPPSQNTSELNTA
T3 sequence (P30281 whole entry partner): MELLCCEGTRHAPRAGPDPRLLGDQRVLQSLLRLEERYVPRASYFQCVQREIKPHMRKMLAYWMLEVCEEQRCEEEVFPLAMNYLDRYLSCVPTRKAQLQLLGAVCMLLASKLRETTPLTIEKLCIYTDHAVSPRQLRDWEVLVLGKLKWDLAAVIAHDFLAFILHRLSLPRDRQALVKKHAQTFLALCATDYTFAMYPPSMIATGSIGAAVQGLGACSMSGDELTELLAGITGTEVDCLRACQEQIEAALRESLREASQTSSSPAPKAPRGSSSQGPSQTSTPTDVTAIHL
How it was run: as §3

CDK 2A = CDK 2A (Homo sapiens, UniProt P24941); experiment: Kinase assay CDK2A (radiometric profiling service); type: biochemical; settings: apparent Ki calculated from Km (ATP) and IC50; read-out: CDK inhibition Ki CDK 2A
How it was run: as §1

CDK1B = CDK1B (Homo sapiens, UniProt P06493); experiment: Kinase assay CDK1B (radiometric profiling service); type: biochemical; settings: apparent Ki calculated from Km (ATP) and IC50; read-out: CDK inhibition Ki CDK1B
CDK1B, sequence (P06493 whole entry): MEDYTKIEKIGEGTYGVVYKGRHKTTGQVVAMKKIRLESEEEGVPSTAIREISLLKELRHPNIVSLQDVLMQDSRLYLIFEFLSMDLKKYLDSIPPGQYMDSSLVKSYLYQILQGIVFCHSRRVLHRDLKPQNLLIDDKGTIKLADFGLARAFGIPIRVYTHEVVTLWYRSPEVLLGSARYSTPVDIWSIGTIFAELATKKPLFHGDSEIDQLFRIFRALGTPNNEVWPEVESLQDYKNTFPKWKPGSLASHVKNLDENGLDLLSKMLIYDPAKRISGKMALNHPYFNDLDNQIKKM
CDK1B, sequence (P14635 whole entry partner): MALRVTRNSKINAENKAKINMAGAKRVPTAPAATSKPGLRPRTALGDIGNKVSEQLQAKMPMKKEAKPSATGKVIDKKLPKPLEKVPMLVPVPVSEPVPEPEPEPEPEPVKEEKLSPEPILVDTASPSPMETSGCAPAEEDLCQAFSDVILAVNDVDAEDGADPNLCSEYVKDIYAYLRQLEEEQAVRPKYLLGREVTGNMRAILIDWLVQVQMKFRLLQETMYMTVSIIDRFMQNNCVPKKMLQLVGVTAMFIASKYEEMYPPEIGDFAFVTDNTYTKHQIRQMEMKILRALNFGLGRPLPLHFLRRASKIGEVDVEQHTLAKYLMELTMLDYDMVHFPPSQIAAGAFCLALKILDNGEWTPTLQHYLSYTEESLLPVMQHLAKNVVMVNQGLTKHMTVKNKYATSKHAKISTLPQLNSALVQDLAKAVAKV
How it was run: as §1

| SMILES | Ki (CDK4D1) [nM] | GI50 (MDA-MB-453) [µM] | GI50 (MV4-11) [nM] | Ki (CDK9T1) [µM] | Ki (CDK7H) [µM] | Ki (CDK6D3) [nM] | Ki (CDK 2A) [nM] | Ki (CDK1B) [µM] | remaining activity at 10 µM (CDK9T1; compound at 10 μM, read-out: % remaining enzymatic activity at 10 μM CDK9T1) [%] | remaining activity at 10 µM (CDK7H; compound at 10 μM, read-out: % remaining enzymatic activity at 10 μM CDK7H) [%] |
| --- | --- | --- | --- | --- | --- | --- | --- | --- | --- | --- |
| CCN1CCN(Cc2ccc(Nc3nccc(-c4sc(C(C)C)nc4C)n3)nc2)CC1 [Compound 18, N-(5-((4-ethylpiperazin-1-yl)methyl)pyridin-2-yl)-4-(2-isopropyl-4-methylthiazol-5-yl)pyrimidin-2-amine] | 28 | 0.166 ± 0.117 | 418 ± 23 | > 10 | > 5 | 394 | 775 | > 5 |  |  |
| CSc1nc(C)c(-c2ccnc(Nc3ccc(N4CCNCC4)cn3)n2)s1 [Compound 20, 4-(4-Methyl-2-(methylthio)thiazol-5-yl)-N-(5-(piperazin-1-yl)pyridin-2-yl)pyrimidin-2-amine] | 5 | 3.14 ± 0.173 | 671 ± 91 | 4.53 | > 5 | 20 | 720 | > 5 |  |  |
| CSc1nc(C)c(-c2ccnc(Nc3ccc(N4CCN(C)CC4)cn3)n2)s1 [Compound 21, 4-(4-methyl-2-(methylthio)thiazol-5-yl)-N-(5-(4-methylpiperazin-1-yl)pyridin-2-yl)pyrimidin-2-amine] | 7 | 7.16 ± 0.886 | 456 ± 66 | > 5 | > 5 | 42 | 2700 | > 5 |  |  |
| Cc1nc(SC(C)C)sc1-c1ccnc(Nc2ccc(N3CCN(C)CC3)cn2)n1 [Compound 24, 4-(2-(isopropylthio)-4-methylthiazol-5-yl)-N-(5-(4-methylpiperazin-1-yl)pyridin-2-yl)pyrimidin-2-amine] | 1 | 4.88 ± 0.214 | 66 ± 19 | 4.61 | > 5 | 15 | 180 | 3.99 |  |  |
| CC(=O)N1CCN(c2ccc(Nc3nccc(-c4sc(SC(C)C)nc4C)n3)nc2)CC1 [Compound 25, 1-(4-(6-((4-(2-(isopropylthio)-4-methylthiazol-5-yl)pyrimidin-2-yl)amino)pyridin-3-yl)piperazin-1-yl)ethan-1-one] | 5 | 0.514 ± 0.05 | 537 ± 117 | > 5 | > 5 | 20 | 75 | > 5 |  |  |
| CNc1nc(C)c(-c2nc(Nc3ccc(N4CCNCC4)cn3)ncc2F)s1 [Compound 28, 5-(5-fluoro-2-((5-(piperazin-1-yl)pyridin-2-yl)amino)pyrimidin-4-yl)-N,4-dimethylthiazol-2-amine] | 4 | 0.248 ± 0.044 | 12 ± 3 | 0.784 | > 5 | 32 | 236 | 1.36 |  |  |
| CNc1nc(C)c(-c2nc(Nc3ccc(N4CCN(C(C)=O)CC4)cn3)ncc2F)s1 [Compound 35, 1-(4-(6-((5-fluoro-4-(4-methyl-2-(methylamino)thiazol-5-yl)pyrimidin-2-yl)amino)pyridin-3-yl)piperazin-1-yl)ethan-1-one] | 17 | 4.91 ± 0.432 | 35 ± 4 | 4.07 | > 5 | 46 | 178 | 1.82 |  |  |
| CNc1nc(C)c(-c2nc(Nc3ccc(N4CCOCC4)cn3)ncc2F)s1 [Compound 38, 5-(5-fluoro-2-((5-morpholinopyridin-2-yl)amino)pyrimidin-4-yl)-N,4-dimethylthiazol-2-amine] | 5 | 5.41 ± 0.801 | 69 ± 5 | > 5 | > 5 | 30 | 100 | 3.31 |  |  |
| Cc1nc(N(C)C)sc1-c1ccnc(Nc2ccc(N3CCNCC3)cn2)n1 [Compound 43, N,N,4-trimethyl-5-(2-((5-(piperazin-1-yl)pyridin-2-yl)amino)pyrimidin-4-yl)thiazol-2-amine] | 21 | 0.894 ± 0.091 | 11 ± 21 | > 5 | > 5 | 56 | 903 | > 5 |  |  |
| Cc1nc(N(C)C)sc1-c1ccnc(Nc2ccc(N3CCN(C)CC3)cn2)n1 [Compound 45, N,N,4-trimethyl-5-(2-((5-(4-methylpiperazin-1-yl)pyridin-2-yl)amino)pyrimidin-4-yl)thiazol-2-amine] | 30 | 2.1 ± 0.787 | 92 ± 4 | > 5 | > 5 | 154 | 1430 | > 5 |  |  |

Continued, values first:

| Ki (CDK4D1) [nM] | GI50 (MDA-MB-453) [µM] | GI50 (MV4-11) [nM] | Ki (CDK9T1) [µM] | Ki (CDK7H) [µM] | Ki (CDK6D3) [nM] | Ki (CDK 2A) [nM] | Ki (CDK1B) [µM] | remaining activity at 10 µM (CDK9T1; compound at 10 μM, read-out: % remaining enzymatic activity at 10 μM CDK9T1) [%] | remaining activity at 10 µM (CDK7H; compound at 10 μM, read-out: % remaining enzymatic activity at 10 μM CDK7H) [%] | SMILES |
| --- | --- | --- | --- | --- | --- | --- | --- | --- | --- | --- |
| 310 | > 10 | 3520 ± 1040 | 4.76 | > 5 | 935 | 3650 | > 5 |  |  | COc1nc(C)c(-c2ccnc(Nc3ccc(N4CCN(C)CC4)cn3)n2)s1 [Compound 19, 4-(2-methoxy-4-methylthiazol-5-yl)-N-(5-(4-methylpiperazin-1-yl)pyridin-2-yl)pyrimidin-2-amine] |
| 190 | > 10 | 2510 ± 432 |  |  | 1950 | 4760 | > 5 | 80 | 86 | CSc1nc(C)c(-c2ccnc(Nc3ccc(N4CCN(C(C)=O)CC4)cn3)n2)s1 [Compound 22, 1-(4-(6-((4-(4-methyl-2-(methylthio)thiazol-5-yl)pyrimidin-2-yl)amino)pyridin-3-yl)piperazin-1-yl)ethan-1-one] |
| 30 | 0.461 ± 0.059 | 73 ± 25 | > 5 | > 5 | 200 | 180 | > 5 |  |  | Cc1nc(SC(C)C)sc1-c1ccnc(Nc2ccc(N3CCNCC3)cn2)n1 [Compound 23, 4-(2-(isopropylthio)-4-methylthiazol-5-yl)-N-(5-(piperazin-1-yl)pyridin-2-yl)pyrimidin-2-amine] |
| 578 | 5.84 ± 0.279 | 154 ± 74 | > 5 | > 5 | 3030 | 310 | 3.1 |  |  | CNc1nc(C)c(-c2ccnc(Nc3ccc(N4CCN(C(C)=O)CC4)cn3)n2)s1 [Compound 33, 1-(4-(6-((4-(4-methyl-2-(methylamino)thiazol-5-yl)pyrimidin-2-yl)amino)pyridin-3-yl)piperazin-1-yl)ethan-1-one] |
| 4 | 0.237 ± 0.044 | 48 ± 4 | > 5 | > 5 | 40 | 335 | > 5 |  |  | Cc1nc(N(C)C)sc1-c1nc(Nc2ccc(N3CCNCC3)cn2)ncc1F [Compound 44, 5-(5-fluoro-2-((5-(piperazin-1-yl)pyridin-2-yl)amino)pyrimidin-4-yl)-N,N,4-trimethylthiazol-2-amine] |
| 87 | 4.72 ± 0.715 | 537 ± 133 | > 5 | > 5 | 234 | 976 | > 5 |  |  | CC(=O)N1CCN(c2ccc(Nc3nccc(-c4sc(N(C)C)nc4C)n3)nc2)CC1 [Compound 48, 1-(4-(6-((4-(2-(dimethylamino)-4-methylthiazol-5-yl)pyrimidin-2-yl)amino)pyridin-3-yl)piperazin-1-yl)ethan-1-one] |
